# In PMC11597150, “Antibacterial Activity of AXOTL-13, a Novel Peptide Identified from the Transcriptome of the Salamander Ambystoma mexicanum” (Pharmaceutics, 2024):
# Where a SMILES comes first, the peptide text is derived from it.
# Assays:
# [1] = test system: Escherichia coli ATCC 25922; format: cell-based; conditions: for inhibitory effect on bacterial growth: microdilution in TSB, 8.7-70 μM, 20 h at 37 °C, absorbance 600 nm
# Description: (§1) To establish the minimum inhibitory concentration (MIC), the microdilution-in-broth protocol for AMPs proposed by Wiegand et al. (2008) was performed. Bacterial strains Escherichia coli ATCC 25922 and Staphylococcus aureus ATCC 25923 were cultured in tryptic soy agar (TSA). For the assay, 5 bacterial colonies were taken, dissolved in tryptic soy broth (TSB), and incubated at 37 °C until reaching 0.5 on the McFarland scale (1 × 10^8 CFU/mL). Subsequently, a dilution was made to achieve a final concentration of 5 × 10^5 CFU/mL. A 96-well plate was used for the assay in which each bacterial strain was exposed to different concentrations of the peptides to be evaluated: 70 μM, 35 μM, 17.5 μM, and 8.7 μM. Different controls were employed: TSB medium served as the sterility control and blank; bacteria without treatment were utilized as the negative control; and bacteria exposed to the Ramosin peptide at 40 μM [31] and sodium hypochlorite at 0.06% were employed as positive controls. Each treatment was performed in triplicate, and each assay was carried out on two different days. The plate was incubated for 20 h at 37 °C in a Multiskan Sky (Thermo Fisher, Waltham, MA, USA), reading the absorbance at a wavelength of 600 nm every hour.
# (§2) The results were read in two ways: an endpoint analysis in which the absorbances of the wells were read at 20 h of treatment, to determine the inhibitory effect of the peptide, and a bacterial growth kinetics analysis in which the behavior of the peptide throughout the assay was observed, identifying a bactericidal or bacteriostatic action.
# [2] = test system: Staphylococcus aureus ATCC 25923; experiment: Broth microdilution MIC / growth inhibition; format: cell-based; conditions: microdilution in TSB, 8.7-70 μM, 20 h at 37 °C, absorbance 600 nm
# Description: as §1, §2
Compound,"minimum inhibitory concentration (MIC) ([1]; ATCC 25922, 20 h) [µM]",inhibitory effect on bacterial growth [1],inhibitory effect on bacterial growth [2]
CC[C@H](C)[C@H](NC(=O)[C@H](CO)NC(=O)[C@H](Cc1ccccc1)NC(=O)CN)C(=O)N[C@@H](CO)C(=O)N[C@@H](CC(C)C)C(=O)N[C@@H](CCCCN)C(=O)N[C@@H](CCCNC(=N)N)C(=O)N[C@@H](CC(C)C)C(=O)N[C@@H](CCC(N)=O)C(=O)N[C@@H](CCCCN)C(=O)N[C@@H](CCSC)C(=O)N[C@@H](CC(C)C)C(=O)O [AXOTL-13] (H-GFSISLKRLQKML-OH),35,–,–
"Peptide 4766: 13-residue peptide LIGGQLGGLIKAL predicted from the Ambystoma mexicanum transcriptome, chemically synthesized",–,did not exert a complete inhibitory effect,did not exert a complete inhibitory effect
"Peptide 4767: 13-residue peptide YITGLIAPILKSL predicted from the Ambystoma mexicanum transcriptome, chemically synthesized",–,did not exert a complete inhibitory effect,did not exert a complete inhibitory effect
"Peptide 4768: 12-residue peptide VLGSILGALKAI predicted from the Ambystoma mexicanum transcriptome, chemically synthesized",–,did not exert a complete inhibitory effect,did not exert a complete inhibitory effect
"Peptide 4769: 13-residue peptide LHPLIGRVIGGVI predicted from the Ambystoma mexicanum transcriptome, chemically synthesized",–,did not exert a complete inhibitory effect,did not exert a complete inhibitory effect
"Peptide 4771: 13-residue peptide LLDTIGKIFGSLL predicted from the Ambystoma mexicanum transcriptome, chemically synthesized",–,did not exert a complete inhibitory effect,did not exert a complete inhibitory effect
